According to patent publication US9775844B2, “Heterocyclic compounds and uses thereof” (Infinity Pharmaceuticals, Inc., priority 2014, dated 2017):

How the values were obtained:
[1] = test system: Farage cell line; assay: Combination isobologram in Farage cell line; format: cell-based; conditions: combination of Compound AA and Compound BB
[2] = test system: CD11b+ myeloid cells in 4T1 tumors; assay: Immunohistochemistry of CD11b / CD68 myeloid cells in 4T1 tumors; format: in vivo, mouse; conditions: vs vehicle/controls
Procedure: Immunohistochemistry was performed to determine the distribution of immune cells within the tumor. In particular, CD11b myeloid cells were examined, as were regulatory vs. effector T cells (CD3, CD4, CD8, FoxP3). Briefly, IHC for CD11b or CD68+ was performed as follows. CD11b antibodies were available from Abcam, clone I-70, Catalong # ab 8878. CD68 antibodies were available from Abcam, clone FA-11, catalog # ab 53444. Tissues were fixed in cold methanol, air-dried, and then stained using a Res IHC Omni-UltraMap HRP XT protocol.
Without being bound by a particular theory, the decrease in the pro-tumorigenic tumor associated myeloid cells can result in activation of cytotoxic T-cells and anti-tumor immunity. […] When the images were quantified as CD11b+ cells per total viable cells (FIG. 37E), a Student t-Test p-value of 0.0355 was obtained when comparing the Compound BB-treated cells to controls. When the images were quantified as CD11b+ stained area per total visible area (FIG. 37F), a Student t-Test p-value of 0.0441 was obtained when comparing the Compound BB-treated cells to controls. […] When the images were quantified as CD11b+ cells per total viable cells (FIG. 37G), a Student t-Test p-value of 0.0864 (d16) or 0.3967 (d22) was obtained when comparing the Compound BB-treated cells to controls. […]

[3] = Pharmacokinetics in rat, oral; format: in vivo
Description: Compound BB's oral exposure is high in rat, dog and monkey. Good oral bioavailability and low clearance in rodent and non-rodent animal species results in high oral exposure.

[4] = Metabolic stability (microsome stability assay); format: in vitro ADME
Procedure: The stability of one or more subject compounds is determined according to standard procedures known in the art. For example, stability of one or more subject compounds is established by an in vitro assay. For example, an in vitro microsome stability assay is established that measures stability of one or more subject compounds when reacting with mouse, rat or human microsomes from liver. The microsome reaction with compounds is performed in 1.5 mL Eppendorf tube. Each tube contains 0.1 μL of 10.0 mg/mL NADPH; 75 μL of 20.0 mg/mL mouse, rat or human liver microsome; […] of 0.2 M phosphate buffer, and 425 μL of ddH2O. Negative control (without NADPH) tube contains 75 μL of 20.0 mg/mL mouse, rat or human liver microsome; […] of 0.2 M phosphate buffer, and 525 μL of ddH2O. The reaction is started by adding 1.0 μL of 10.0 mM tested compound. The reaction tubes are incubated at 37° C. 100 μL sample is collected into new Eppendorf tube containing 300 μL cold methanol at 0, 5, 10, 15, 30 and 60 minutes of reaction. Samples are centrifuged at 15,000 rpm to remove protein. Supernatant of centrifuged sample is transferred to new tube. Concentration of stable compound after reaction with microsome in the supernatant is measured by Liquid Chromatography/Mass Spectrometry (LC-MS).
These properties indicate the compound's suitability for in vivo administration.

[5] = test system: suppression of spleen T cell proliferation by CT26 tumor cells; assay: Ex vivo T cell proliferation assay with CT26 tumor cells (CFSE); format: cell-based, mouse; conditions: tumors from treated mice
Procedure: The duration of the study was 1 week under treatment. 5-6 week old female, Balb/c mice (Jackson Labs) implanted subcutaneously with 5×10^5 CT26 cells in 100 μl PBS. CT26 cells were cultured in RPMI supplemented with 10% FBS. Dosing commenced when tumors reached an average volume of 500-600 mm^3
For group 3 (αPD-L1), the mice were dosed once, IP, 200 ug (200 uL from 1 mg/ml stock).
Mice were monitored daily for adverse clinical effects. Body weights and tumor luminescent were measured two times per week. At the end of the study, tumors were harvested and cut into 3 parts; one piece for CTL killing assay, one piece for CSFE proliferation assay and one piece (split into two) for OCT/FFPE.
Spleens from 3 vehicle treated tumor bearing mice were physically dissociated in T cell media and passed through a 70 micron filter. After red cell lysis, the cells were pooled, brought up in PBS and stained with CFSE (invitrogen). After washing, these cells were brought up in 20 ml T cell media. Half the cells received Dynal mouse activator beads (CD3/CD28 crosslinking at a 1:1 […]). CD3/CD28 beads induce proliferation in splenocytes from tumor bearing mouse (data not shown).
The cells were treated with red cell lysis buffer, washed, and re-suspended in 10 ml T cell media. 2 mls of the each tumor cell suspension were plated into each of two 12 well plates. […]

[6] = test system: CXCL12 stimulated pAKT in T cells and monocytes; assay: Ex vivo whole blood CXCL12 stimulation of phospho-AKT, LLC-bearing mice; format: in vivo, mouse; conditions: 12 days QD PO, 2 h post dose
Procedure: C57 BL/6 Albino mice were implanted with 1×10^6 cells in a SC injection in the hind flank. The cell implant material was generated from brei that was passaged from mouse to mouse. Treatment started when tumors were between 160-180 mm^3 Mice were dosed for 12 days, QD, PO with vehicle, 15, 7.5 or 3 mg/kg. On day 12 mice were dosed and terminal blood was collected 2 h post dose by cardiac stick collection. Blood was placed in EDTA K2 collection tube and stored at room temp for PD analysis.
Blood from each animal was aliquotted into 2 plates and warmed to 37° C. degrees. PBS was added to one plate as an unstimulated control. Murine CXCL12/SDF-1 was added to the second plate to a final concentration of 800 ng/mL and plate was returned to the 37° C. degree block. After 2 minutes of incubation, blood was lysed and fixed using paraformaldehyde. Samples were washed and frozen until flow cytometric analysis. T cells were gated using an antibody to CD3 and monocytes were gated as LY6G^− LY6C^high. Intracellular pAKT […] was measured and percent positive was used for graphing.

[7] = Mouse pharmacokinetics, oral single and repeat dose; conditions: in vivo, 10 mg/kg in NMP solution, read-out: Mouse PK AUClast @ 10 mg/kg in NMP solution

C[C@H](NC(=O)c1c(N)nn2cccnc12)c1cc2cccc(C#Cc3cnn(C)c3)c2c(=O)n1-c1ccccc1 [Compound BB]
combination effect (isobologram) [1]: synergistic effect | CD11b+ cells in 4T1 tumors (IHC) [2]: statistically significant reduction in CD11b+ cells | oral exposure (plasma concentrations within 24 hours) ([3]; rat, 7.5 mg/kg oral): high | dose-exposure proportionality (AUC 0-last) ([3]; rats, oral 10, 25, and 100 mg/kg): good dose-exposure proportionality | metabolic stability [4]: high metabolic stability | half-life at 20 µM ([4]; liver microsomes, microsomes, all species (incl rat)): > 2 h | suppression of T cell proliferation by cells derived from CT26 mouse tumors [5]: can release the suppression | ex vivo whole blood CXCL12 stimulation of phospho-AKT in T cells [6]: inhibits | ex vivo whole blood CXCL12 stimulation of phospho-AKT in monocytes [6]: inhibits | AUC(0-t) [7]: 83700 ng·h/mL
